Test results taken from publication PMC5416783, “Inhibition of homologous phosphorolytic ribonucleases by citrate may represent an evolutionarily conserved communicative link between RNA degradation and central metabolism” (Nucleic Acids Research, 2017).

Key:
Test in all cases: end-point exoribonuclease gel assay, […]'-FAM-A20 RNA
Assay type in all cases: biochemical
[1] = biological target: T1, H. sapiens PNPase (hPNPase) (Homo sapiens, UniProt Q8TCS8); conditions: inhibition; 700 nM FAM-A20 RNA, 240 nM enzyme, 3.75 mM MgCl2, phosphate, pH 8, 37 °C, 60 min; control without citrate 8.4 ± 2.8 %
T1 construct: gene PNPT1; N-terminal hexahistidine tag (pET-28b), codon-optimised, expressed in E. coli BL21(DE3)pLysS; homotrimer
T1 sequence (Q8TCS8 46-783): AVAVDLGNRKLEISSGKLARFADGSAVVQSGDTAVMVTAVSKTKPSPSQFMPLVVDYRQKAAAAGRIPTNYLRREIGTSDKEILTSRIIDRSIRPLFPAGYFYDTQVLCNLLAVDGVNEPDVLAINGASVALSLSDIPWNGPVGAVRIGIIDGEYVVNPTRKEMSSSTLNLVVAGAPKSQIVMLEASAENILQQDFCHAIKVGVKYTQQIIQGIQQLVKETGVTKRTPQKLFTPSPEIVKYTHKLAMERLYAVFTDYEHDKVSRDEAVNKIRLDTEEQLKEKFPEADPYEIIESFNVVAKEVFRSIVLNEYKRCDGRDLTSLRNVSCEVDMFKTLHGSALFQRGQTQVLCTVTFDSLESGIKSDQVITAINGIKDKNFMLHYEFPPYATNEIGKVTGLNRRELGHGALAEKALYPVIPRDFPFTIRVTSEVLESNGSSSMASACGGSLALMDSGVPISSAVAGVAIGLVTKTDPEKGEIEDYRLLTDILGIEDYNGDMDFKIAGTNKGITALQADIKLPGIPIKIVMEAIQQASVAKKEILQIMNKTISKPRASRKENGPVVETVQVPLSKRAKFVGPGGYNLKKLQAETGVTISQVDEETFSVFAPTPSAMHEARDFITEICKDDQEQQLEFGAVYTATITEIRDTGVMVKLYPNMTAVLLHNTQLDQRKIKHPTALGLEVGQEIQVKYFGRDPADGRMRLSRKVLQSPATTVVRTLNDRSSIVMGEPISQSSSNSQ

[2] = biological target: T2, Synechocystis sp. PNPase (SspPNPase) (Synechocystis sp. PCC 6803, UniProt P72659); conditions: inhibition; 700 nM FAM-A20 RNA, 240 nM enzyme, 3.75 mM MgCl2, phosphate, pH 8, 37 °C, 30 min; control without citrate 2.2 ± 0.2 %
T2 construct: gene pnp; recombinant, commercial (Sigma)
T2 sequence (P72659 1-718): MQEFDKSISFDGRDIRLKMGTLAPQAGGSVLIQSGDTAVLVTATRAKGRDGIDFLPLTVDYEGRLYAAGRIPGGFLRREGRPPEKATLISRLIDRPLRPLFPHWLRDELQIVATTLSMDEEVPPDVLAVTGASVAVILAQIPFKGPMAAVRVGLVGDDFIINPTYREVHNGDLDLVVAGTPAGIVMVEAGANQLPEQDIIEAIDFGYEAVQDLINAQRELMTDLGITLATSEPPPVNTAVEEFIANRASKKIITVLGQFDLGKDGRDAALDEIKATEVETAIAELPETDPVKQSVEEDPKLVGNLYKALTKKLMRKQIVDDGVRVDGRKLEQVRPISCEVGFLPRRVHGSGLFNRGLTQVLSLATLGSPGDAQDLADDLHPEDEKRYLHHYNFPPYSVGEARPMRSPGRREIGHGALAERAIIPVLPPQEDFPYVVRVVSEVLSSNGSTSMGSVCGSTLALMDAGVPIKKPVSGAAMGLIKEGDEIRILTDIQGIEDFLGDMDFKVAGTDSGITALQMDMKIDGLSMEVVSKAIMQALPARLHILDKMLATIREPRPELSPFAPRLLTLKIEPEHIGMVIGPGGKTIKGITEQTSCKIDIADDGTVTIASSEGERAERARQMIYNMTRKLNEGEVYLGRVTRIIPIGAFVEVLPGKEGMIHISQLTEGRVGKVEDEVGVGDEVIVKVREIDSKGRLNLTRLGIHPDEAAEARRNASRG

[3] = biological target: T3, S. solfataricus Exosome (SsoExosome) (Saccharolobus solfataricus, UniProt Q9UXC0+Q9UXC2); conditions: inhibition; 700 nM FAM-A20 RNA, 240 nM enzyme, 3.75 mM MgCl2, phosphate, pH 8, 37 °C, 10 min; control without citrate 4.0 ± 0.5 %
T3 construct: gene rrp41; N-terminal hexahistidine Rrp4 co-expressed with untagged Rrp41 and Rrp42 in E. coli BL21(DE3)pLysS; codon-optimised; trimer of Rrp41/Rrp42 dimers with Rrp4 cap; with Exosome complex component Rrp4
T3 sequence (Q9UXC2 1-248): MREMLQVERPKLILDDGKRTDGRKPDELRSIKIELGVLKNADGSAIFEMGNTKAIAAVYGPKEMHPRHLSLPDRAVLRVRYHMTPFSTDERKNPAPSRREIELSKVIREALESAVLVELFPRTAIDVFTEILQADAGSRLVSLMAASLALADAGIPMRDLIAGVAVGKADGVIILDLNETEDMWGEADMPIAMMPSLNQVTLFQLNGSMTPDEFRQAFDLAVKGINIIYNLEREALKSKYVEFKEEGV
T3 sequence (Q9UXC0 1-275): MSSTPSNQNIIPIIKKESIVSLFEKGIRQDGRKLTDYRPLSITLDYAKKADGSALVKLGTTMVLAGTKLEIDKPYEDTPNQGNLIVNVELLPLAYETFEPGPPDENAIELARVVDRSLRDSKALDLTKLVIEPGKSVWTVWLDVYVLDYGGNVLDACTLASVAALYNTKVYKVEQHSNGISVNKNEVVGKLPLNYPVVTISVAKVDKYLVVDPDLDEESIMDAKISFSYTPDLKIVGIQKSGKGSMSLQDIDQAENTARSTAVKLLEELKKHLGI
T3 sequence (Q9UXC4 1-249 partner): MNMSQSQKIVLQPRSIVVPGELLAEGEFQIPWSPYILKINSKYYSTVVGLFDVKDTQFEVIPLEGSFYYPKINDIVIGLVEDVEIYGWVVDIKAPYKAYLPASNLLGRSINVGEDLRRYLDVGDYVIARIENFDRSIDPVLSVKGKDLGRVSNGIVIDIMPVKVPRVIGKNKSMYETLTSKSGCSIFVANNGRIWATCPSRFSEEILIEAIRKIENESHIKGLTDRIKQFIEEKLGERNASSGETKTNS

[4] = biological target: T4, E. coli PNPase (EcPNPase) (Escherichia coli, UniProt P05055); conditions: inhibition; 700 nM FAM-A20 RNA, 240 nM enzyme, 3.75 mM MgCl2, phosphate, pH 8, 37 °C, 10 min; control without citrate 2.2 ± 0.4 %
T4 construct: gene pnp; pET-Duet1_EcPNPase expressed in E. coli BL21(DE3)pLysS; homotrimer
T4 sequence (P05055 1-711): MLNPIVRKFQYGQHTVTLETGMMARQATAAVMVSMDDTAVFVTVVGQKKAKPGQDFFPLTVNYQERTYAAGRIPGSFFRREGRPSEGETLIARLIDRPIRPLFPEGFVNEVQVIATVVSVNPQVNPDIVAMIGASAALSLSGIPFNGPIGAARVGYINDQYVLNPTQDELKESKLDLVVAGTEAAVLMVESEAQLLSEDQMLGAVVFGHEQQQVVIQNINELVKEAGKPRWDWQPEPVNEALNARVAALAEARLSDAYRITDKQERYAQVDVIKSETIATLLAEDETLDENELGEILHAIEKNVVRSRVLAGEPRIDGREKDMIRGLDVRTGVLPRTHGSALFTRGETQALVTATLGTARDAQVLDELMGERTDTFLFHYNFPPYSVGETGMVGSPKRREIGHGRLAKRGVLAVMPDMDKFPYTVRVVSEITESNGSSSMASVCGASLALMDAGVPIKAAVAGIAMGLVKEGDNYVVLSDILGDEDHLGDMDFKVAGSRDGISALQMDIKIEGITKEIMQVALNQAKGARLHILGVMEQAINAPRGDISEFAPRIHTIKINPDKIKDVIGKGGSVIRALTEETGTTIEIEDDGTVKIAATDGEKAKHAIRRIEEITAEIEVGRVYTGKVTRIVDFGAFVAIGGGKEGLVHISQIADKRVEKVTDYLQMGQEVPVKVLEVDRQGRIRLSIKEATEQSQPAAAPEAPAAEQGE

With `O=C(O)CC(O)(CC(=O)O)C(=O)O` [citrate] the “Percentage substrate remaining at assay end-point / + citrate” value [1] was 22.8 ± 4.8%, the “Percentage substrate remaining at assay end-point / + citrate” value [2] was 6.9 ± 2.2% and the “Percentage substrate remaining at assay end-point / + citrate” value [3] was 13.6 ± 0.5%. For the same compound, the “Percentage substrate remaining at assay end-point / + citrate” value [4] was 5.6 ± 1.5%.
